Here are results for 12 compounds from patent publication US7115624B1, “Method of inhibiting protein tyrosine phosphatase 1B and/or T-cell protein tyrosine phosphatase 4 and/or other PTPases with an Asp residue at position 48” (Novo Nordisk A/S, priority 1999, dated 2006).

Like-named read-outs stand apart in the source and are kept apart here. Some results are limits rather than exact numbers.

One data set addresses PTPβ (Homo sapiens, UniProt P23467). Kind of data set: PTPase inhibition, p-nitrophenyl phosphate substrate, Ki. Type of data set: biochemical.
For another data set, the target named is T1, CD45 (Homo sapiens, UniProt P08575).
T1 sequence (P08575 599-1306 limits assumed): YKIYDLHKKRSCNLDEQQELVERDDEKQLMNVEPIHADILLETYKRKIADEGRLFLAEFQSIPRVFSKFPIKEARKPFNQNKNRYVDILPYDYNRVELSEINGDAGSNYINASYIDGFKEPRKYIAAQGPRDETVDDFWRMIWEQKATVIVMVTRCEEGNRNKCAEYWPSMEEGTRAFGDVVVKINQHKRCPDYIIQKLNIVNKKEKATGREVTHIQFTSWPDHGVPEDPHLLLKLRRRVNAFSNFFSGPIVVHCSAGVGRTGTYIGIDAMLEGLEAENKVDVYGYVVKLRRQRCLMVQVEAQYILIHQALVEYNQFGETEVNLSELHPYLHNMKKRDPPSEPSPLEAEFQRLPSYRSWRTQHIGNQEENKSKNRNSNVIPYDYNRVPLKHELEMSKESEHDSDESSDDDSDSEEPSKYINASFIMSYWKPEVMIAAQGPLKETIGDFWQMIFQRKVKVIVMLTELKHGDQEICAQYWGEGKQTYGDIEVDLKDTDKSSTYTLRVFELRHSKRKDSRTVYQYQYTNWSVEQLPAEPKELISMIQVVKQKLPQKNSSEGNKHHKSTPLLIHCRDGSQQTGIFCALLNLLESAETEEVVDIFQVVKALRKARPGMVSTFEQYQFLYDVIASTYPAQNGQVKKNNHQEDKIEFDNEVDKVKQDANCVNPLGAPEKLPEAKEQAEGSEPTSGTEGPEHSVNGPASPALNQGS
Described as above. As to conditions: read-out: Ki values, CD45 D1D2. Type of data set: biochemical.

Another data set has as its target T2, LAR (Homo sapiens, UniProt P10586).
T2 sequence (P10586 1285-1907 limits assumed): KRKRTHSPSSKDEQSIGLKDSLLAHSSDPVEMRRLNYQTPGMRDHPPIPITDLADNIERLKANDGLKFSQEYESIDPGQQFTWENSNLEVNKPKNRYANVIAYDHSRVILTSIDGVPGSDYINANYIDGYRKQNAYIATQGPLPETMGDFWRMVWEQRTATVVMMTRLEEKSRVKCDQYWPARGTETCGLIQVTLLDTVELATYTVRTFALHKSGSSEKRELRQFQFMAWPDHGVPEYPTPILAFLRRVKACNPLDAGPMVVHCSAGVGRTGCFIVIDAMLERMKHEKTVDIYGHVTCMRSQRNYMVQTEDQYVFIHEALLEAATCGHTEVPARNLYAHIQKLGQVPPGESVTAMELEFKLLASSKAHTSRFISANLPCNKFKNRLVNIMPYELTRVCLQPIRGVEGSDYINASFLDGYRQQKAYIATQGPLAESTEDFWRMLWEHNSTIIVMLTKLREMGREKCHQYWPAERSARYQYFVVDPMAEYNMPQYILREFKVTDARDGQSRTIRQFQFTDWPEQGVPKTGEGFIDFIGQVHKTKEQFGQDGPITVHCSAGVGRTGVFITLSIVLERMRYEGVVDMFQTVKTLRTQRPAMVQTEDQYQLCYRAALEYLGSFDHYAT
The data set is described as above. As to conditions: pH 5.5; D1D2; read-out: Ki values, LAR D1D2. The format is biochemical.

A further data set concerns the target T3, PTPα (Homo sapiens, UniProt P18433).
T3 construct: PTPα D1
Described as above. Type of data set: biochemical.

For another data set, the target named is SHP-1 (Homo sapiens, UniProt P29350). The data set is described as follows: biochemical.
The next data set addresses T4, PTPε (Homo sapiens, UniProt P23469).
T4 construct: PTPε D1
Kind of data set: PTPase inhibition, p-nitrophenyl phosphate substrate, Ki. Type of data set: biochemical.

Another data set has as its target T5, PTP1B (Homo sapiens, UniProt P18031).
T5 sequence (P18031 1-321): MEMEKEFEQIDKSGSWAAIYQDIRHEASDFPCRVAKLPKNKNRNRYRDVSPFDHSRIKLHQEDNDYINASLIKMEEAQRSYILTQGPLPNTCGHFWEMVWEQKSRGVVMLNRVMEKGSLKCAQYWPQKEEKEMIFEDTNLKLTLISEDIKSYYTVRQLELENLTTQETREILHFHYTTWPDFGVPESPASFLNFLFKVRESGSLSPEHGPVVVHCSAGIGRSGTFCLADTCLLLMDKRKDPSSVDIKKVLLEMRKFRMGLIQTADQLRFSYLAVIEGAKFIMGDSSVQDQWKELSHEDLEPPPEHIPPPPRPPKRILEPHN
The data set is described as above. Type of data set: biochemical.

Data set [1] can be described thus: pKa of the tetrahydropyridine ring. Type of data set: physicochemical. As to conditions: positively charged tetrahydropyridine ring.
[2] abbreviates: pH 5.5, read-out: Ki values, PTPβ.
Where [3] appears, read: pH 5.5, D1, read-out: Ki values, PTPα D1.
Setting [4] is: pH 5.5, D1, read-out: Ki values, PTPε D1.
Setting [5] is: pH 5.5, read-out: Ki values, PTP1B.
Where [6] appears, read: pH 7, D1 (Table 3), read-out: Ki values, PTPα D1.
Where [7] appears, read: pH 7 (Table 3), read-out: Ki values, PTPβ.
[8] abbreviates: pH 7, D1 (Table 3), read-out: Ki values, PTPε D1.
[9] abbreviates: pH 7 (Table 6), read-out: Ki, PTP β residue 48 Asn.
Setting [10] is: pH 7 (Table 6), read-out: Ki, PTP1B residue 48 Asp.
The mark [11] stands for this setting: pH 7 (Table 6), read-out: Ki, PTP α residue 48 Asn.
The mark [12] stands for this setting: pH 7 (Table 6), read-out: Ki, PTP ε residue 48 Asn.

Chain of PTPβ (P23467 1703-1963 limits assumed): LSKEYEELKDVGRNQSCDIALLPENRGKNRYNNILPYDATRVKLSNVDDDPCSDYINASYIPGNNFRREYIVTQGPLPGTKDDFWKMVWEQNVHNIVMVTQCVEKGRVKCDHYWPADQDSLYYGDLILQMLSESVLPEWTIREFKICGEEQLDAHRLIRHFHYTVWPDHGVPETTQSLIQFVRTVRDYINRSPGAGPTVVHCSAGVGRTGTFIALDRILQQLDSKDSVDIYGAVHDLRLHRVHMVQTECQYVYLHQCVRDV
T4 sequence (P23469 135-394 limits assumed): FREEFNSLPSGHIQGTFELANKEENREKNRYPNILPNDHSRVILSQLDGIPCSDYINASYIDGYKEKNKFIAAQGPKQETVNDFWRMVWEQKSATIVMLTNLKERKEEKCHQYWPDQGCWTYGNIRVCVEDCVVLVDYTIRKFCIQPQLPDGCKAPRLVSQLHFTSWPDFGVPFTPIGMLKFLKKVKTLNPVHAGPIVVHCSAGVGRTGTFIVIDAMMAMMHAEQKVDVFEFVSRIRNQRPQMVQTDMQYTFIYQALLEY
T3 sequence (P18433 241-501 limits assumed): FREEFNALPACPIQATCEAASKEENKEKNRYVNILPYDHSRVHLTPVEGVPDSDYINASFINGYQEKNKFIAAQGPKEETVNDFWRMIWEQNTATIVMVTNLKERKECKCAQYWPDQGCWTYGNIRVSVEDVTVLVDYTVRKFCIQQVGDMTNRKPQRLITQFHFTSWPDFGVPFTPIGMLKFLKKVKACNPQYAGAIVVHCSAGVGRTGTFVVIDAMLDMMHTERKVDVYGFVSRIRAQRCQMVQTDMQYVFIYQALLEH
Chain of SHP-1 (P29350 whole entry): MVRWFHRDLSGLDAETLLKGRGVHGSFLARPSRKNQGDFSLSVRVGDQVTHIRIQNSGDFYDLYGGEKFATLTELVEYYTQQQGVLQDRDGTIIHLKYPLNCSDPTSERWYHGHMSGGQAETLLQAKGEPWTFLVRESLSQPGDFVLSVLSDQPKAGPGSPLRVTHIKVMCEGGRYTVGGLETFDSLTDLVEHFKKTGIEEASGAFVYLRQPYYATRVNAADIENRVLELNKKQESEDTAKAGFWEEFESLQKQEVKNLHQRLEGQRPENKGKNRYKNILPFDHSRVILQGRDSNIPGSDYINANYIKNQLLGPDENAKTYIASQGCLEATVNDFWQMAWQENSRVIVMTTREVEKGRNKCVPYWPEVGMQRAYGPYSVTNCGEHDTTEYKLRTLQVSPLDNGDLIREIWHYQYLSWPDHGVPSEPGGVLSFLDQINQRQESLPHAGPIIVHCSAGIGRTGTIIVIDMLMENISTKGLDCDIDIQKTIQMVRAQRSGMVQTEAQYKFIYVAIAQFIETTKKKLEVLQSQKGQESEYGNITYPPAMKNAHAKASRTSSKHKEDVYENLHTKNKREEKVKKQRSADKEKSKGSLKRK
Description for CD45: (§1) The assay conditions are as follows. Appropriate concentrations of the compounds of the invention (e.g., 0.1 to 100 μM) are added to the reaction mixtures containing different concentrations of the substrate, p-nitrophenyl phosphate (range: 0.16 to 10 mM—final assay concentration). The buffer used was 50 mM HEPES pH 7.0, 100 mM sodium chloride, 0.1% (w/v) bovine serum albumin, 5 mM glutathione, and 1 mM EDTA. The reaction was started by addition of the enzyme and carried out in microtiter plates at 25° C. for 60 minutes. The reactions are stopped by addition of NaOH. […] The data are analyzed using nonlinear regression fit to classical Michaelis Menten enzyme kinetic models. Inhibition is expressed as Ki values in μM.
Description for LAR: The compounds are evaluated for biological activity with a truncated form of PTP1B (corresponding to the first 321 amino acids), which was expressed in E. coli and purified to apparent homogeneity using published procedures well-known to those skilled in the art. The enzyme reactions are carried out using standard conditions essentially as described by Burke et al. (Biochemistry 35; 15989–15996 (1996)) incorporated by reference. […] Appropriate concentrations of the compounds of the invention (e.g., 0.1 to 100 μM) are added to the reaction mixtures containing different concentrations of the substrate, p-nitrophenyl phosphate (range: 0.16 to 10 mM—final assay concentration). The buffer used was 50 mM HEPES pH 7.0, 100 mM sodium chloride, 0.1% (w/v) bovine serum albumin, 5 mM glutathione, and 1 mM EDTA. The reaction was started by addition of the enzyme and carried out in microtiter plates at 25° C. for 60 minutes. The reactions are stopped by addition of NaOH. The enzyme activity was determined by measurement of the absorbance at 405 nm with appropriate corrections for absorbance at 405 nm of the compounds and p-nitrophenyl phosphate. The data are analyzed using nonlinear regression fit to classical Michaelis Menten enzyme kinetic models. Inhibition is expressed as Ki values in μM.
Description for PTP1B: as §1
Description for PTPβ: as §1
Description for PTPε: as §1

`O=C(O)C(=O)Nc1sc2c(c1C(=O)O)CCCC2` [Example 2-OBTA]: the Ki came to 14 µM on PTPβ (setting [2]); 40 µM on CD45 (pH 5.5, D1D2); 400 µM at LAR; 300 µM on PTPα (setting [3]); 120 µM on SHP-1; 45 µM at PTPε (setting [4]).
Regarding `O=C(O)C(=O)Nc1sccc1C(=O)O` [Example 2-OTA, 2-(oxalyl-amino)-thiophene-3-carboxylic acid], the inhibition constant Ki on PTPβ (setting [2]) was 18 µM; on PTP1B (setting [5]), 62 µM; at CD45 (pH 5.5, D1D2) it was 70 µM; on LAR, more than 2000 µM; at PTPα (setting [3]), 1700 µM; at SHP-1 it was 60 µM. Moreover, the Ki at PTPε (setting [4]) is 590 µM.
As to `O=C(O)C(=O)Nc1sc2c(c1C(=O)O)CCOC2` [Example 2-OTPA, 2-(Oxalyl-amino)-4,7-dihydro-thieno[2,3-c]pyran-3-carboxylic acid], the figures for the inhibition constant (Ki) at PTPα (setting [3]) and on PTPα (setting [6]) were 270 µM and 1100 µM, respectively.
`O=C(O)C(=O)Nc1sc2c(c1C(=O)O)CCNC2` [Example 2-OTPyA, 2-(Oxalyl-amino)-4,5,6,7-tetrahydro-thieno[2,3-c]pyridine-3-carboxylic acid]: the inhibition constant Ki was 150 µM on PTPβ (setting [2]); 0.3 µM on PTP1B (setting [5]); 110 µM on CD45 (pH 5.5, D1D2); more than 2000 µM on LAR; more than 2000 µM at PTPα (setting [3]); 900 µM at SHP-1. Further, at PTPε (setting [4]), the Ki came to 600 µM. In data set [1], this compound yielded a pKa of more than 10.
On to `O=C(O)C(=O)Nc1ccsc1C(=O)O` [Example 3-OTA, 3-(oxalyl-amino)-thiophene-2-carboxylic acid], for which the Ki was 160 µM at PTPβ (setting [2]); 61 µM on PTP1B (setting [5]); 250 µM at CD45 (pH 5.5, D1D2); more than 2000 µM at LAR; 500 µM at PTPα (setting [3]); more than 2000 µM on SHP-1. The Ki on PTPε (setting [4]) stood at 350 µM.
Consider `O=C(O)C(=O)Nc1sc2c(c1C(=O)O)CC(CN1C(=O)c3cccc(O)c3C1=O)OC2` (centres unmarked) [Example 4, 5-(4-Hydroxy-1,3-dioxo-1,3-dihydro-isoindol-2-ylmethyl)-2-(oxalyl-amino)-4,7-dihydro-5H-thieno[2,3-c]pyran-3-carboxylic acid], for which the inhibition constant (Ki) on PTPβ (setting [7]) was found to be 1.1 µM; on PTP1B (pH 7 (Table 3), read-out: Ki values, PTP1B), 1.9 µM; on CD45 (pH 7, D1D2 (Table 3)), 130 µM; at PTPα (setting [6]), 93 µM; at PTPε (setting [8]), 11 µM.
Turning to `COc1ccc2c(c1)C(=O)N(CC1OCCc3c1sc(NC(=O)C(=O)O)c3C(=O)O)C2=O` (centres unmarked) [Example 26, 7-(5-Methoxy-1,3-dioxo-1,3-dihydro-isoindol-2-ylmethyl)-2-(oxalyl-amino)-4,7-dihydro-5H-thieno[2,3-c]pyran-3-carboxylic-acid], the Ki is 8.9 µM at PTPβ (setting [7]); 380 µM at CD45 (pH 7, D1D2 (Table 3)); 620 µM on PTPα (setting [6]); 330 µM at PTPε (setting [8]).
Regarding `CCOC(=O)N1Cc2sc(NC(=O)C(=O)O)c(C(=O)O)c2CC1CN1C(=O)c2ccccc2C1=O` (centres unmarked) [Example 48, 5-(1,3-Dioxo-1,3-dihydro-isoindol-2-ylmethyl)-2-(oxalyl-amino)-4,5,6,7-tetrahydro-thieno[2,3-c]pyridine-3,6-dicarboxylic acid 6-ethyl ester], the Ki at PTPβ (setting [9]) stood at 47 µM; on PTP1B (setting [10]), 0.25 µM; at PTPα (setting [11]), 900 µM; at PTPε (setting [12]) it was 380 µM.
As for `O=C(O)C(=O)Nc1sc2c(c1C(=O)O)CC(CN1C(=O)c3ccccc3C1=O)NC2` (centres unmarked) [Example 49, 5-(1,3-Dioxo-1,3-dihydro-isoindol-2-ylmethyl)-2-(oxalyl-amino)-4,5,6,7-tetrahydro-thieno[2,3-c]pyridine-3-carboxylic acid], the Ki worked out at 8.6 µM at PTPβ (setting [9]) and 0.085 µM at PTP1B (setting [10]).
For the compound `O=C(O)C(=O)Nc1sc2c(c1C(=O)O)C[C@@H](CN1C(=O)c3ccccc3C1=O)NC2` [Example 50, (L)-5-(1,3-Dioxo-1,3-dihydro-isoindol-2-ylmethyl)-2-(oxalyl-amino)-4,5,6,7-tetrahydro-thieno[2,3-c]pyridine-3-carboxylic acid], the results for the Ki on PTPβ (setting [9]), on PTP1B (setting [10]) and on PTPα (setting [11]) were 8 µM, 0.07 µM and 1000 µM, respectively.
Take `O=C(O)C(=O)Nc1sc2c(c1C(=O)O)CC(CN1C(=O)c3cccc(O)c3C1=O)NC2` (centres unmarked) [Example 52, 5-(4-Hydroxy-1,3-dioxo-1,3-dihydro-isoindol-2-ylmethyl)-2-(oxalyl-amino)-4,5,6,7-tetrahydro-thieno[2,3-c]pyridine-3-carboxylic acid]: the inhibition constant Ki at PTPβ (setting [9]) is 107 µM; at PTP1B (setting [10]), 1.2 µM; at PTPα (setting [11]), more than 400 µM; on PTPε (setting [12]), more than 500 µM. At PTP1B, the “fold increase of affinity for PTP1B compared to 2-OTPyA” value is on record as “about 13 fold”.
In the case of `O=C(O)C(=O)Nc1ccccc1C(=O)O` [OBA, 2-(oxalyl-amino)-benzoic acid], the Ki at PTPβ (setting [2]) was 32 µM; on CD45 (pH 5.5, D1D2), 160 µM; at LAR it was more than 2000 µM; on PTPα (setting [3]), 700 µM; on SHP-1 it was 530 µM; on PTPε (setting [4]), 125 µM.
